From US8314082B2, “Stilbene derivatives for ADP-ribosyl cyclase inhibitors” (Industrial Cooperation Foundation Chonbuk National …, priority 2006, dated 2012)

Columns and labels:
[1] = system: 2 kidney 1 clip hypertensive rat model; experiment: Systolic blood pressure in 2 kidney 1 clip hypertensive rat model; type: in vivo, Sprague-Dawley male rats; details: intraperitoneal 428 μg/200 g/d, from day 7 after surgery for 7 weeks, tail plethysmography
Protocol: Renovascular hypertension was produced by 2KlC Sprague-Dawley male rats (7-9 weeks old) weighing 200 to 220-g were anesthetized with ketamine (100 mg/kg, intra-peritoneally) and rumpen (5 mg/kg, intraperitoneally). The left kidney was exposed through the median abdominal incision, and the renal artery was separated from the renal vein with caution. Then, a silver clip with 0.15 mm slit was placed around the renal artery. The sham procedure was performed, including the entire surgery with the exception of arterial clipping. To examine the effect of 2,2′-DHAB in the 2KlC model, we administered it at days 7 after the surgery for 7 weeks. 2,2′-DHAB was injected intraperitoneally with 58% DMSO plus saline at a dose of 1.5 μl/g body weight (428 μg/200 g/d). Sham group and control 2KlC received DMSO plus saline treatment. The dose of injected DMSO had no side effect on blood pressure (BP) or any other parameters. Systolic blood pressure was measured by a method using tail plethysmography in conscious rats once a week, from the day prior to surgery until the day of sacrifice.

[2] = system: Ang II induced cADPR production in rat cardiomyocytes; experiment: Ang II-induced [cADPR]i in cardiomyocytes; type: cell-based; details: pretreatment
Protocol: [cADPR]i was measured using a cyclic enzymatic assay as described previously [Graeff et al., Biochem. J. (2002)361:379-84]. Aplysia californica ADPR-cyclase was purified from […] according to the method described [Lee et al., Cell Regul. (1991)2:203-9]. Briefly, MMCs were treated with 0.3 ml of 0.6 M perchloric acid under sonication after Ang II treatment. Precipitates were removed by centrifugation at 20,000×g for 10 min. […] After centrifugation for 10 min at 1500×g, the aqueous layer was collected and neutralized with 20 mM sodium phosphate (pH 8). To remove all contaminating nucleotides, the samples were incubated with the following hydrolytic enzymes overnight at 37° C.: 0.44 unit/ml nucleotide pyrophosphatase, 12.5 units/ml alkaline phosphatase, 0.0625 unit/ml NADase, and 2.5 mM MgCl2 in 20 mM sodium phosphate buffer (pH 8.0). Enzymes were removed by filtration using Centricon-3 filters. […] An increase in the resorufin fluorescence was measured at 544 nm excitation and 590 nm emission using a fluorescence plate reader (Molecular Devices Corp., Spectra-Max GEMINI). […] Measurement of [cADPR]i in cardiomyocytes were determined as described above examples 5. […]

[3] = system: rat kidney ADPR-cyclase; experiment: ADPR-cyclase activity assay (cGDPR / e-ADPR fluorescence from NGD+ or e-NAD+); type: biochemical; details: various concentrations
Protocol: (§1) FIGS. 1A and 1B show the inhibition of rat kidney ADPR-cyclase that was incubated with […] NGD^+ or e-NAD^+ in the presence of various concentrations of 4,4′-dihydrioxyazobenzene (DHAB) at 37° C. for 10 min and effects of DHAB on human CD38, rat brain, heart, spleen, and kidney ADPR-cyclase. FIGS. 1A and 1B are referred to as FIG. 1 herein.
(§2) Specific ADPR-cyclase activity was determined by measuring cyclic GDP-ribose (cGDPR) or etheno-ADP-ribose (e-cADPR) fluorometrically using NGD^+ or e-NAD^+ as a substrate [Greaff et al., Biochem. J. (2002)361:379-84]. Samples were incubated in the presence of 200 mM NGD^+ or e-NAD^+ with and without an appropriate agent in an assay buffer (25 mM HEPES, pH 7.4, 100 mM NaCl, and 0.1% Triton X-100) in a […]. The reaction mixture was incubated at 37° C. for 10 min. The reaction was stopped by adding […] trichloroacetic acid (10%). […] Fluorescence of cGDPR or e-ADPR in the solution was determined at excitation/emission wavelengths of 297/410 nm (HITACHI F-2000 fluorescence spectrophotometer). cADPR-hydrolase activity was determined by incubating cADPR with ADPR-cyclase or CD38 at 37° C. for 20 min. Hydrolysis of cADPR was analyzed by high performance liquid chromatography as described (White et al., 2000). […]

[4] = system: ADPR-cyclase purified partially from rat heart; experiment: ADPR-cyclase activity assay, heart enzyme; type: biochemical; set-up: dose or concentration left out as unconfirmed
Protocol: as §1
as §2, with “of 200 mM” left out

| Compound | effect on elevation of systolic blood pressure [1] | effect on Ang II-mediated [cADPR]i [2] | inhibition of generation of cGDPR and e-ADPR from NGD+ and e-NAD+ [3] | sensitivity of enzyme activity to compound [4] |
| --- | --- | --- | --- | --- |
| Oc1ccccc1/N=N/c1ccccc1O [2,2′-DHAB, 2,2′-Dihydroxyazobenzene] | prevented the elevation of blood pressure | inhibited |  |  |
| Oc1ccc(N=Nc2ccc(O)cc2)cc1 [4,4′-DHAB, 4,4′-Dihydroxyazobenzene] |  |  | concentration-dependent | insensitive |
